“Also recorded” adds a separate entry of the source. Ends that are not written are not given here.

Data set [1] concerns human HaCat keratinocytes or MCF10A mammary epithelial cells. As to the kind of experiment: Competition of GST-fusion proteins or synthetic peptides in EGF-stimulated scratch wound migration (FIG. 8 summary). The class given is cell-based. The settings on record: for competitive activity: FIGS. 8A-C. The protocol:
FIGS. 8A-C. […] GST-fusion proteins or synthetic peptides were added at concentrations ranging from 0.1 to 30 μM to the culture medium of human HaCat keratinocytes or MCF10A mammary epithelial cells in the presence or absence of 20 ng/ml EGF. The ability of the constructs to inhibit the migration of the cells to close a scratch wound in confluent monolayers was determined and express as the concentration of inhibitor necessary to cause 50% inhibition of cell migration. (FIG. 8A) Competition using recombinant GST-fusion proteins. GST-Sdc4 fusion proteins bearing truncations or mutations were assessed for their competitive activity. […] (FIG. 8B) Schematic representation of the active site in Sdc4. The active site is shown as a juxtamembrane site in the ectodomain of Sdc4. TM is the transmembrane domain and CYTO is the cytoplasmic domain. The sequence of a peptide derived from this site ([…]) (SEQ ID NO: 4) is shown along with its homology across other mammalian Sdc4 species (SEQ ID NO: 12) and its homology to Sdc4 derived from zebrafish (SEQ ID NO: 13), identifying highly conserved amino acids at the extreme N- and C-terminus of the peptide. (FIG. 8C) Competition with synthetic peptides. Peptides were purchased from commercial sources for testing as a putative synstatin inhibitory peptide ([…]). Mutation of isoleucine at position 89 to alanine (I89A), or mutation of amino acids 99-108 to alanine (99-108A) reduce the activity by 10-fold. Truncation of amino acids 126-131 at the C-terminus (4126-131) reduces the activity by at least 100-fold.
Wound healing assay. HaCat or MCF10A cells grown to confluence on 48 well-plates were starved for 6 hr by serum deprivation followed by introduction of a scratch wound in the monolayer using 200 μl pipette tip. […] Images were acquired using a PlanApo 20 (0.75 numerical aperture) objective and a Photometrics CoolSnap ES camera on a Nikon Eclipse TE2000U microscopy system and wound closure quantified.

Another data set deals with HaCat keratinocytes. The data set can be described thus: EGF-stimulated scratch wound closure (chemotactic migration) of HaCat keratinocytes. It counts as cell-based, human. The settings on record: EGF 10 ng/ml.
For the next data set, the system named is MCF10A cells. The data set can be described thus: Total cell number, CellTiterGLO assay, MCF10A. It counts as cell-based, human. Conditions: 3-30 μM; 4 or 7 days; normal epithelium. The protocol: (§1) FIGS. 9A-F. SSTN treatment of normal (nontransformed) epithelial cells versus carcinoma (transformed) cells. Cells are plated for one day, then treated with either 3-30 μM […] (SSTN-I), 3-30 μM […] (SSTN-E), 3-30 μM SSTNHER2 (SSTN-H) or combinations of the three peptides, each at 10 μM to test their additive effect. […] The treatment times are chosen to reflect only modest effects of the peptides used singly, so that the more pronounced effect of peptides used in combination can still be observed. Treatment for longer times leads to significant cell death observed even with single peptides alone. (FIG. 9A) HaCat human keratinocytes, an example of a normal stratified epithelium, (FIG. 9B) UM-SCC47 cells, a squamous cell carcinoma derived from the tongue of a patient (a stratrified epithelium), (FIG. 9C) SCC25 cells, another squamous cell carcinoma from the tongue of a patient), (FIG. 9D) MCF10A cells, a normal human breast epithelium, (FIG. 9E) MDA-MB-468 cells, a triple-negative (TN) breast carcinoma, and (FIG. 9F) SKBr3 cells, a HER2+ human breast carcinoma. Note that all four carcinomas are inhibited by […], and this is enhanced when […] is combined with the other SSTN peptides, leading to obvious cell death (e.g., the number of cells at the end of the experiment are less than at the beginning).
(§2) Apoptosis assay. […]
In general terms: Cellular ATP, detected with luciferase, serves as a proxy for viable cell number.

The next data set relates to SCC25 cells. As to the kind of experiment: Total cell number, CellTiterGLO assay, SCC25. It counts as cell-based, human. The settings on record: 3-30 μM; combinations each at 10 μM; 4 or 7 days. The protocol:
as §1, §2

In the next data set the test system is SKBr3 cells. The data set can be described thus: Total cell number, CellTiterGLO assay, SKBr3. The settings on record: 3-30 μM; combinations each at 10 μM; 4 or 7 days. It counts as cell-based, human. The protocol: as §1, §2
The next data set deals with UM-SCC47 cells. The data set can be described thus: Total cell number, CellTiterGLO assay, UM-SCC47. The class given is cell-based, human. Conditions: 3-30 μM; combinations each at 10 μM; 4 or 7 days. The protocol:
as §1, §2

The subject of another data set is MDA-MB-468 cells. As to the kind of experiment: Total cell number, CellTiterGLO assay, MDA-MB-468. The class given is cell-based, human. Conditions: 3-30 μM; combinations each at 10 μM; 4 or 7 days. The protocol: as §1, §2
Data set [2] deals with MCF10A mammary epithelial cells.
Description: Migration of human MCF10A mammary epithelial cells in response to EGF (10 ng/ml) is tested in 12 hr scratch wound closure assays.
Wound healing assay. HaCat or MCF10A cells grown to confluence on 48 well-plates were starved for 6 hr by serum deprivation followed by introduction of a scratch wound in the monolayer using 200 μl pipette tip. […] To cause EGF-stimulated chemotactic migration that depends on Sdc4, cells were stimulated with EGF (10 ng/ml). Images were acquired using a PlanApo 20 (0.75 numerical aperture) objective and a Photometrics CoolSnap ES camera on a Nikon Eclipse TE2000U microscopy system and wound closure quantified.
Data set [3] concerns HaCat human keratinocytes. The data set can be described thus: Total cell number, CellTiterGLO assay, HaCat. The class given is cell-based. The settings on record: 3-30 μM; 4 or 7 days; normal epithelium. The protocol:
as §1, §2

The next data set deals with fibroblasts. Conditions: McFall et al.; cited from earlier work.
Data set [4] is described as follows: Estimated blood concentration during Alzet pump delivery. The class given is in vivo, nude (nu/nu) mice. Conditions: 400 μM in the pump. The protocol:
(§3) FIG. 10. S4ED blocks MDA-MB-468 breast carcinoma growth in vivo. Human MDA-MB-468 breast carcinoma cells were implanted subcutaneously on the flank of nude (nu/nu) mice and allowed to grow for 2 weeks to form palpable tumors (dotted blue line indicates size after 2 weeks). At that time, systemic delivery (0.25 μL/hr) of 400 μM recombinant GST-S4ED, GST alone or saline alone (no treatment) was initiated by surgical implantation of Alzet pumps on the behind the shoulder blades of the animals for 4 wks, followed by replacement with pumps containing fresh protein for an additional 4 wks. Tumor size was measured with calipers at 2 week intervals. Error bars denote S.D., 10 tumors/treatment group.
(§4) The inventor has tested the entire recombinant S4ED protein (as a GST-S4ED fusion protein) as an inhibitor against one of these carcinoma cells (the MDA-MB-468 cells) during tumor growth in immunocompromised nude (nu/nu) mice.

Data set [5] relates to MDA-MB-468 breast carcinoma. As to the kind of experiment: MDA-MB-468 breast carcinoma subcutaneous tumor growth in nude mice, Alzet pump delivery. It counts as in vivo, nude (nu/nu) mice. The settings on record: 400 μM in pump, 0.25 μL/hr systemic, 8 wks, started 2 weeks after implantation. The protocol: as §3, §4
The target of a further data set is T1, EGFR (Homo sapiens, UniProt P00533).
T1 construct: endogenous in cells
As to the kind of experiment: Capture of EGFR from cell lysates by GST-ectodomain on glutathione beads. The class given is binding. Conditions: lysates of EGF-stimulated A431 cells / HaCat cell lysates, western blot. The protocol:
(§5) (FIG. 6A) Mouse syndecan chimeras in which their ectodomains are switched are expressed in HaCat cells, then immunoprecipitated with antibodies specific for the mouse syndecan ectodomains. […] Also note that these complexes assemble only upon EGF treatment.
(§6) Immunoprecipitation. Immunoprecipitations were carried out as described previously (Beauvais et al., 2004; Beauvais et al., 2006). Cells were washed once with washing buffer (50 mM Hepes, 50 mM NaCl and 10 mM EDTA, pH 7.4) and lysed for 20 min on ice in 1% Triton X-100 containing a 1:1000 dilution of protease inhibitor mixture set III (Calbiochem) in washing buffer. Cell debris was removed by centrifugation at 20,000 g for 15 min at 4° C. Lysates or 6×His-tagged β4 cytoplasmic domain (amino acids 1677-1752) were incubated at 4° C. overnight with 100 μl Glutathione Sepharose 4B beads (50% in IP wash buffer), GST-S4CD or GST-S1CD in present or absent of different peptides. Samples were resolved by electrophoresis under reduced conditions on a 15% Laemmli gel, transferred to Immobilon P, and probed with primary antibody followed by an alkaline phosphatase-conjugated secondary antibody. Visualization of immune-reactive bands was performed using ECF reagent (GE Healthcare) and scanned on a Typhoon Trio Variable Mode Imager (GE-Healthcare) in blue fluorescence. […]

In the next data set the target is T2, HER2 (Homo sapiens, UniProt P04626).
T2 construct: endogenous in cells
The data set can be described thus: Capture of HER2 from cell lysates by GST-ectodomain on glutathione beads. Conditions: lysates of EGF-stimulated A431 cells; western blot. It counts as binding. The protocol: as §5, §6

The next data set concerns the target T3, α6β4 integrin (Homo sapiens, UniProt P16144+P23229).
T3 construct: endogenous in cells
The data set can be described thus: Capture of α6β4 integrin from cell lysates by GST-ectodomain on glutathione beads. The class given is binding. Conditions: re-probed blot, data not shown. The protocol: Immunoprecipitation. Immunoprecipitations were carried out as described previously (Beauvais et al., 2004; Beauvais et al., 2006). Cells were washed once with washing buffer (50 mM Hepes, 50 mM NaCl and 10 mM EDTA, pH 7.4) and lysed for 20 min on ice in 1% Triton X-100 containing a 1:1000 dilution of protease inhibitor mixture set III (Calbiochem) in washing buffer. Cell debris was removed by centrifugation at 20,000 g for 15 min at 4° C. Lysates or 6×His-tagged β4 cytoplasmic domain (amino acids 1677-1752) were incubated at 4° C. overnight with 100 μl Glutathione Sepharose 4B beads (50% in IP wash buffer), GST-S4CD or GST-S1CD in present or absent of different peptides. Samples were resolved by electrophoresis under reduced conditions on a 15% Laemmli gel, transferred to Immobilon P, and probed with primary antibody followed by an alkaline phosphatase-conjugated secondary antibody. Visualization of immune-reactive bands was performed using ECF reagent (GE Healthcare) and scanned on a Typhoon Trio Variable Mode Imager (GE-Healthcare) in blue fluorescence.
The inventor's prior work has shown that Sdc1 contains a site in its extracellular domain to capture the αvβ3 or αvβ5 integrin and the insulin-like growth factor-1 receptor (IGF1-R) (Beauvais et al., 2009; Beauvais & Rapraeger, 2010). […]

T3 sequence (P23229 24-1130): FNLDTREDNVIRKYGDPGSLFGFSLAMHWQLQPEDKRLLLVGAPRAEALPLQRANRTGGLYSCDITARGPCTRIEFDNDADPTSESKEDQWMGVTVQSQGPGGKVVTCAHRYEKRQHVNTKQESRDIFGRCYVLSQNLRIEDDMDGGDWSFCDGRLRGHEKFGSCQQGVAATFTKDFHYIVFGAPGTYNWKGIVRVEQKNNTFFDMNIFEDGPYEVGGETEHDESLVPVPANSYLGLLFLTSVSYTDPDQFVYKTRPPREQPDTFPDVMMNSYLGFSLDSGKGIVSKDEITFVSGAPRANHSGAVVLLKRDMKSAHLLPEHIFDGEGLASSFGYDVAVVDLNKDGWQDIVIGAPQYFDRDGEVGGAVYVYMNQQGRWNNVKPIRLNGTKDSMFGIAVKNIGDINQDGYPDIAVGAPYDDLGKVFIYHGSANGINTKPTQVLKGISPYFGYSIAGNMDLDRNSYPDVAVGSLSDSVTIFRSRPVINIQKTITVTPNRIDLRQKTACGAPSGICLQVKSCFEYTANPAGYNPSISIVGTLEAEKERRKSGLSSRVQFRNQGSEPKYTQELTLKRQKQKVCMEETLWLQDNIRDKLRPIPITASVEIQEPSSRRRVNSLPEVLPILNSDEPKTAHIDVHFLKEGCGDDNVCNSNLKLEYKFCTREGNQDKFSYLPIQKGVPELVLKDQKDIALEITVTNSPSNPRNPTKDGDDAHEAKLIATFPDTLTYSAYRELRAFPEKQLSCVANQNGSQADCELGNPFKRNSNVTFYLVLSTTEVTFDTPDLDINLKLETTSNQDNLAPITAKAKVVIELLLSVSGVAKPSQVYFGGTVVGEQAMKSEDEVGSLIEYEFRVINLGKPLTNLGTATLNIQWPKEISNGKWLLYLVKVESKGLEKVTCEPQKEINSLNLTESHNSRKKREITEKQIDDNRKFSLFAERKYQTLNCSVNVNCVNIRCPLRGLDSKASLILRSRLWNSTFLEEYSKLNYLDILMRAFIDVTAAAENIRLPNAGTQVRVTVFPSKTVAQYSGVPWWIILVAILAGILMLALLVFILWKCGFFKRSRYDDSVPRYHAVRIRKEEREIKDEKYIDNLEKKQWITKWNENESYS
T3 sequence (P23229 942-1130 limits assumed): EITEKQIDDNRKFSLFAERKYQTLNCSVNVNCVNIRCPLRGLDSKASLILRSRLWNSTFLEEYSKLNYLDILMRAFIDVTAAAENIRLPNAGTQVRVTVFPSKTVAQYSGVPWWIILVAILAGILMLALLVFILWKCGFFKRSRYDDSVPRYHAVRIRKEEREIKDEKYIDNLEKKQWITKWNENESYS
T3 sequence (P16144 28-1752 isoform P16144-2 limits assumed): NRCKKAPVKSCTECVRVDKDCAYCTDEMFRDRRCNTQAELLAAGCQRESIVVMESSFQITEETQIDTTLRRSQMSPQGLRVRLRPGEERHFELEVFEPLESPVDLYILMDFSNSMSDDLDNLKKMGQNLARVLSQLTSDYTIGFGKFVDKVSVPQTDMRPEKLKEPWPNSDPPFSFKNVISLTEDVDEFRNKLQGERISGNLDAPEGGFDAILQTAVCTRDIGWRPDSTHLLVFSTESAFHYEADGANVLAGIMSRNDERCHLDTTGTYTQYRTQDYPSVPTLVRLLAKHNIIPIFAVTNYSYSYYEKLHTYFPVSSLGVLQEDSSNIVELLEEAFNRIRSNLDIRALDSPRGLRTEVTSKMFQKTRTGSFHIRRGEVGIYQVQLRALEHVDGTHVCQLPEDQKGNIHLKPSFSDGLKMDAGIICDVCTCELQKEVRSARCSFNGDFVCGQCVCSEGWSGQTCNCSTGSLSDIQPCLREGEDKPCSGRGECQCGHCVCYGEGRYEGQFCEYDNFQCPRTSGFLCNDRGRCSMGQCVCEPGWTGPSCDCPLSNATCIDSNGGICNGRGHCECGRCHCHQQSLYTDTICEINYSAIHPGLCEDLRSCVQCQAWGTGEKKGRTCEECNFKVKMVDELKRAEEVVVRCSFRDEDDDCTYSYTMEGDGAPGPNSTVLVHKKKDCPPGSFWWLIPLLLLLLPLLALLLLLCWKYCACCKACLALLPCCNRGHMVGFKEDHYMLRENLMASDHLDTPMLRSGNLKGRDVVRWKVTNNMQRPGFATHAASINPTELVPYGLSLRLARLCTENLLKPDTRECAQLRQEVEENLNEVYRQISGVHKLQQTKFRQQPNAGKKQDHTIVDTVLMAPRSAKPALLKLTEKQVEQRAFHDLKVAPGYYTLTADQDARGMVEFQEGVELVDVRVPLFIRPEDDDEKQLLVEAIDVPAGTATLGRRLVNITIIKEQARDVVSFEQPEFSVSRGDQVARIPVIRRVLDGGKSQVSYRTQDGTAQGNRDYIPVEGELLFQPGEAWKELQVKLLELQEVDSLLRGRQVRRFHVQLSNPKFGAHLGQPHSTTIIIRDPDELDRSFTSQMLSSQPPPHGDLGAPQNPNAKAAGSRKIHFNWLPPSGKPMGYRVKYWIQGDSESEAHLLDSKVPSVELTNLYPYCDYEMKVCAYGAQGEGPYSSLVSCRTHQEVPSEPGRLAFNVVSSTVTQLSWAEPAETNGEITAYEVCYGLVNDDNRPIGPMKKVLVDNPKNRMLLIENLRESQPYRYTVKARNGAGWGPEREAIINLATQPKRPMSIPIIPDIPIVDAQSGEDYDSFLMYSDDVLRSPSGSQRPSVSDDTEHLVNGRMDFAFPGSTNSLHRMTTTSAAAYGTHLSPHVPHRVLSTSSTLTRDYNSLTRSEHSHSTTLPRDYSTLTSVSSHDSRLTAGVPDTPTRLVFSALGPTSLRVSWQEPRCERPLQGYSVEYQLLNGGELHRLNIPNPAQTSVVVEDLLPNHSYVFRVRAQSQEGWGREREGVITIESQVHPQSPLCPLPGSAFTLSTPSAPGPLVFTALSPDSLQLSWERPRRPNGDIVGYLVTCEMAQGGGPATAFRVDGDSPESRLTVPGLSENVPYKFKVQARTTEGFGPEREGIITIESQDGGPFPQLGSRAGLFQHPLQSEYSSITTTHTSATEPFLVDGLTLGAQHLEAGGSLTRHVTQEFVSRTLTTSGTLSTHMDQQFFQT

Consider “4126-131: synthetic peptide with truncation of amino acids 126-131 at the C-terminus (NHIPERAGSGSQVPTEPKKLEENEVIPKRISPVEESEDV)”, for which, in data set [1] (0.1 to 30 μM, 20 ng/ml EGF, FIG. 8C), the “reduction of competitive activity, synthetic peptide variants versus peptide 87-131” value is “at least 100 fold”.

As for `COc1cc(/C=C(\C#N)C(N)=O)cc(CSc2nc3ccccc3s2)c1O` [AG825], the “effect on EGF-induced migration / wound closure (in words)” value in the data set on HaCat keratinocytes (10 μM AG825) is recorded as “not inhibited; also recorded: not by the tyrphostin AG825”.

Consider `COc1cc2ncnc(Nc3ccc(F)c(Cl)c3)c2cc1OCCCN1CCOCC1` [Iressa], for which the “effect on EGF-induced migration / wound closure (in words)” value in the data set with HaCat keratinocytes (1 μM Iressa) is reported as “does block wound closure; also recorded: blocked”.

In general, IC50 refers to the point on the concentration scale where inhibition reaches its midpoint. Lower therefore signals greater potency in that assay. With “NHIPERAGSGSQVPTEPKKLEENEVIPKRISPVEESEDVSNKVSM”, the “growth or survival (total cell number)” value (with MCF10A cells; in data set [3]) was “no effect” in each case. Besides, the “growth/survival (total cell number)” value in the data set with SCC25 cells, in the data set on SKBr3 cells, with UM-SCC47 cells and in the data set on MDA-MB-468 cells was “do target growth/survival mechanisms; also recorded: inhibited” throughout. In the data set on HaCat keratinocytes, the “effect on EGF-induced migration / wound closure (in words)” value is “blocks”. The same molecule registered an IC50 in data set [2] (12 h) of 100 to 300 nM. Besides, the “effect on EGF-stimulated migration/chemotaxis (in words)” value in data set [2] (EGF 10 ng/ml, scratch wound closure) was “blocks”.

On to “S4ED98-131: truncated Sdc4 ectodomain, amino acids 98-131 (QVPTEPKKLEENEVIPKRISPVEESEDVSNKVSM)”, for which the competitive activity result in [1] is “ca. 10%”. For the same molecule, in the data set with fibroblasts, the “loss of activity versus S4ED78-131 as competitor for cell adhesion” value is on record as 100 fold.

Turning to “S4ED 78-118: truncated Sdc4 ectodomain, amino acids 78-118 (VVHPLVPLDNHIPERAGSGSQVPTEPKKLEENEVIPKRISP)”, the competitive activity entry in data set [1] is recorded as “ca. 10%”. For the same molecule, in the data set on fibroblasts, the “activity as competitor for cell adhesion to full-length S4ED (in words)” value is “completely inactive”.

B1: GST-S4ED: recombinant Sdc4 ectodomain GST fusion protein (protein)
chain: ESIRETEVIDPQDLLEGRYFSGALPDDEDVVGPGQESDDFELSGSGDLDDLEDSMIGPEVVHPLVPLDNHIPERAGSGSQVPTEPKKLEENEVIPKRISPVEESEDVSNKVSMSSTVQGSNIFERTE
modifications: left off: a dimerising Fc or GST
notes: recombinant Sdc4 ectodomain GST fusion protein
B1: in [4], the “estimated concentration in the blood” value was 2 to 3 µM. The tumor growth entry in [5] was “tumor growth leveling off”; in data set [5] (listed as S4ED) it was “blocks”. Also, the “capture of EGFR” value with EGFR is listed as “captures”; with EGFR (listed as S4ED) it was “captures only EGFR”. The “capture of HER2” value with HER2 was “captures only EGFR”. Further, the “block of EGF-stimulated migration” value in data set [2] (10 μM, EGF 10 ng/ml, 12 hr scratch wound closure) was found to be 80%. Moreover, the “capture of α6β4 integrin” value in the data set with α6β4 integrin was “also captured”.

The values are drawn from US10080777B2, “Syndecan peptides and polypeptides and uses thereof” (WISCONSIN ALUMNI RESEARCH FOUNDATION, priority 2012, dated 2018).
